# Measured values reported in patent publication US6818798B1, “Process for making a (3R,3′R)-zeaxanthin precursor” (University of Maryland, College Park, priority 2000, dated 2004).
# How the values were obtained:
# Type in all cases: physicochemical
# Solubility in hexane = conditions: printed as solvent volume per mass
# Protocol: As pointed out above, the solubility of 3′-epilutein in solvents such as pentane, hexane, heptane, and petroleum ether (b.p.=35-60° C.) is much higher than that of (3R,3′R,6′R)-lutein. However; large scale separation with these non-polar hydrocarbons alone would require large volumes of solvents and is not practical. For example, the low solubility of 3′-epilutein in hexane (13 ml/mg) is indicative of the large volumes of this solvent needed for the partial separation of 3′-epilutein from (3R,3′R,6′R)-lutein by virtue of their differential solubilities. Therefore, a co-solvent may be employed to increase the solubility of 3′-epilutein and at the same time reduce the volume of the hydrocarbon solvent. […] Preferred ethers include diethyl ether, TBME, diisopropyl ether and the like. Preferred non-polar hydrocarbon solvents include pentane, hexane, heptane, petroleum ether and the like. The preferred petroleum ether is that fraction which boils at 35-60° C. The ratio of non-polar hydrocarbon solvent (or petroleum ether) to ether may range from 4:1, to about 2:1, more preferably, about 3:1. One of ordinary skill in the art may determine other ratios with no more than routine experimentation.
# [1] = Solubility in non-polar hydrocarbon / organic solvents; conditions: pentane, hexane, heptane, cyclohexane, petroleum ether (b.p.=35-60° C.)
# Protocol: Such solvents include pentane, hexane, heptane, cyclohexane, petroleum ether (b.p.=35-60° C.) and the like. Based on this difference in solubility behavior, a number of processes were developed which allowed the partial separation of 3′-epilutein from (3R,3′R,6′R)-lutein. These methods are a) solvent extraction, b) preferential crystallization, c) Soxhlet extraction, d) enzymatic acylation, and e) supercritical extraction with carbon dioxide. When each of these methods is applied separately to a 1:1 mixture of (3R,3′R,6′R)-lutein and 3′-epilutein, the partial separation of these carotenoids was accomplished and 3′-epilutein was obtained in 77-95% enrichment. […] The enrichment of 3′-epilutein in poorly separated mixtures may be further increased by low-temperature crystallization of (3R,3′R,6′R)-lutein from a C1-4 alcohol. Alcohols suitable for this crystallization include ethanol, methanol, propanol, 2-propanol and the like. The temperature at which the crystallization may be performed is between about −80° C. and about −40° C. […]
# While (3R,3′R,6′R)-lutein and (3R,3′R)-zeaxanthin are not acylated with lipase AK or lipase PS, 3′-epilutein undergoes acylation at C-3′ to give 3′-epilutein-3′-acetate. As mentioned above, due to the difference in solubility between (3R,3′R,6′R)-lutein and 3′-epilutein, the enzymatic acylation can be readily carried out in the above-mentioned organic solvents. […]
# [2] = Solubility in supercritical carbon dioxide; conditions: 5 mg scale
# Protocol: The partial separation of (3R,3′R,6′R)-lutein and 3′-epilutein was also found to be quite feasible by the use of supercritical fluid extraction with carbon dioxide.
# 5 mg of an epimeric mixture of (3R,3′R,6′R)-lutein and 3-epilutein prepared from 97% pure (3R,3′R,6′R)-lutein (Table 2) was mixed with 0.70 g of hydromatrix (mixture of silica gel and diatomaceous earth). This was extracted with carbon dioxide in a Model Prep-Master supercritical fluid extraction apparatus (Suprex-ISCO, Inc., Lincoln, Nebr.). The conditions were as follows: flow=2 ml/min, restrictor temperature=50° C., desorb temperature=10° C., oven temperature=35° C. A two step gradient was employed for extraction of 3′-epilutein. Step one used 100 g of carbon dioxide at 300 atmosphere and step two 50 g of carbon dioxide at 375 atmosphere. Total of 2.4 mg of carotenoids was extracted with this 150 g of carbon dioxide. The extracted carotenoids were shown by HPLC to consist of 3′-epilutein (83%), (3R,3′R,6′R)-lutein (13%), anhydrolutein (2%), and Z-luteins (2%). Approximately 2.5 mg of carotenoids remained in the hydromatrix; these were: (3R,3′R,6′R)-lutein (77%), 3′-epilutein (13%), and (3R,3′R)-zeaxanthin (10%).
solubility in hexane (Solubility in hexane) [mL/mg],SMILES,solubility in non-polar solvents (in words) [1],solubility in supercritical carbon dioxide (in words) [2]
13,"CC1=C[C@@H](O)CC(C)(C)[C@H]1/C=C/C(C)=C/C=C/C(C)=C/C=C/C=C(C)/C=C/C=C(C)/C=C/C1=C(C)C[C@@H](O)CC1(C)C [3′-epilutein, (3R,3′S,6′R)-lutein]","slightly more soluble than (3R,3′R,6′R)-lutein","by far greater than that of (3R,3′R,6′R)-lutein and (3R,3′R)-zeaxanthin"
,CC(=O)OC1C=C(C)C(C=CC(C)=CC=CC(C)=CC=CC=C(C)C=CC=C(C)C=CC2=C(C)CC(O)CC2(C)C)C(C)(C)C1 (stereo not shown) [3′-epilutein-3′-acetate],highly soluble,
